Experiments:
Bcl-2 = Bcl-2 (Homo sapiens, UniProt P10415); experiment: Bcl-2 binding affinity analysis (fluorescence polarization binding assay)
Source text: (§1) Bcl-2 and Bcl-xL binding can be determined using a variety of known methods. One such assay is a sensitive and quantitative in vitro binding assay using fluorescence polarization (FP) described by Wang, J. -L.; Zhang, Z -J.; Choksi, S.; Sjam. S.; Lu, Z.; Croce, C. M.; Alnenri, E. S.; Komgold, R.; Huang, Z. Cell permeable Bcl-2 binding peptides: a chemical approach to apoptosis induction in tumor cells. Cancer Res. 2000, 60, 1498-1502).
(§2) Bcl-2 and Bcl-xL binding affinity analysis data is presented below for various compounds of the invention.

Bcl-xL = Bcl-xL (Homo sapiens, UniProt Q07817); experiment: Bcl-xL binding affinity analysis (fluorescence polarization binding assay); design: scale not given here
Source text: as §1, §2

Chain of Bcl-xL (Q07817 whole entry): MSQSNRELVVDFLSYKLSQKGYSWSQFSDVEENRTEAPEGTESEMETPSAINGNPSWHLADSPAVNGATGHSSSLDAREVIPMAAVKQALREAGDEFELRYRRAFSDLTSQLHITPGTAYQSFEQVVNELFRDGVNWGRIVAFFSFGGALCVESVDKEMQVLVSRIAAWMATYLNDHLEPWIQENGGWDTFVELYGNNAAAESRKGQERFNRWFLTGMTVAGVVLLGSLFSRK
Chain of Bcl-2 (P10415 whole entry): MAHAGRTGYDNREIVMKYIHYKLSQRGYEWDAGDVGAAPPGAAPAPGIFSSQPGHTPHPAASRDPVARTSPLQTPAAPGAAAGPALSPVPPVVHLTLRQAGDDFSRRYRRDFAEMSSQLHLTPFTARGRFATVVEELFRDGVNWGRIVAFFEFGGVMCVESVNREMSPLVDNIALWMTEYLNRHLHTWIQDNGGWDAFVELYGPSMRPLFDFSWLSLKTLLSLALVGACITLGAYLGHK

Ki (Bcl-2) | Bcl-XL binding affinity Ki (Bcl-xL) | SMILES
< 800 nM | ♯ | C[C@@H]1[C@@H](NC(=O)[C@@H]2[C@H]([C@H](C)O)[C@H](CO)ON2Cc2cccc(-c3cccc(C(=O)NCCCCN(C)C)c3)c2)C[C@H]2C[C@@H]1C2(C)C [Compound 113]
< 800 nM | ♯ | C[C@H](O)[C@@H]1[C@H](CO)ON(Cc2cccc(N3CCN(C(=O)OCc4ccccc4)CC3)c2)[C@@H]1C(=O)NC1C[C@H]2C[C@@H]([C@@H]1C)C2(C)C (some centres unmarked) [Compound 253]
< 800 nM | ♯ | COc1ccc(OC)c(CN(Cc2cccc(CN3OC(CO)C(C(C)O)C3C(=O)NC3CC4CC(C3C)C4(C)C)c2)C(CC(C)C)CN(C)C)c1 (centres unmarked) [Compound 333]
< 800 nM | ♯♯ | CCNC(=O)c1cccc(-c2cccc(CN3O[C@@H](CO)[C@@H]([C@H](C)O)[C@H]3C(=O)N[C@H]3C[C@H]4C[C@@H]([C@@H]3C)C4(C)C)c2)c1 [Compound 122]
< 800 nM | ♯ | CC(C)/N=C(/NC(C)C)N1CCN(c2cccc(CN3O[C@@H](CO)[C@@H]([C@H](C)O)[C@H]3C(=O)NC3C[C@H]4C[C@@H]([C@@H]3C)C4(C)C)c2)CC1 (some centres unmarked) [Compound 296]
< 800 nM | ♯ | C[C@@H]1[C@@H](NC(=O)[C@@H]2[C@H]([C@H](C)O)[C@H](CO)ON2Cc2cccc(NCCCN(C)C)c2)C[C@H]2C[C@@H]1C2(C)C [Compound 582]
< 800 nM | ♯ | CC(C)CC(CN(C)C)N(Cc1cccc(CN2OC(CO)C(C(C)O)C2C(=O)NC2CC3CC(C2C)C3(C)C)c1)Cc1ccccc1N1CCN(C)CC1 (centres unmarked) [Compound 315]
6000 to 50000 nM | ♯♯ | C[C@@H](O)[C@@H]1C(C(=O)NCCCN(C)c2ccc(Cl)cc2)N(Cc2cccc(C#CCNC(=O)c3ccccc3)c2)O[C@@H]1CO (some centres unmarked) [Compound 62]
< 800 nM | ♯ | CCN(CC)CCNC(=O)c1cccc(-c2cccc(CN3O[C@@H](CO)[C@@H]([C@H](C)O)[C@H]3C(=O)N[C@H]3C[C@H]4C[C@@H]([C@@H]3C)C4(C)C)c2)c1 [Compound 112]
< 800 nM | ♯ | C[C@@H]1[C@@H](NC(=O)[C@@H]2[C@H]([C@H](C)O)[C@H](CO)ON2Cc2cccc(-c3ccc4c(=O)n(C)n(C)c(=O)c4c3)c2)C[C@H]2C[C@@H]1C2(C)C [Compound 133]
< 800 nM | ♯♯ | C[C@@H]1[C@@H](NC(=O)[C@@H]2[C@H]([C@H](C)O)[C@H](CO)ON2Cc2cccc(-c3cccc(C(=O)N4CCCN(C)CC4)c3)c2)C[C@H]2C[C@@H]1C2(C)C [Compound 125]
< 800 nM | ♯ | CC(O)C1C(CO)ON(Cc2cccc(CNC(CCc3ccccc3)CN(C)C)c2)C1C(=O)NC1CC2CC(C1C)C2(C)C (centres unmarked) [Compound 468]
< 800 nM | ♯ | C[C@@H]1[C@@H](NC(=O)[C@@H]2[C@H]([C@H](C)O)[C@H](CO)ON2Cc2cccc(CN(CCc3ccccc3)CCN(C)C)c2)C[C@H]2C[C@@H]1C2(C)C [Compound 209]
6000 to 50000 nM | ♯ | C[C@H](O)[C@@H]1[C@H](CO)ON(Cc2cccc(C#CC3(N)CCCCC3)c2)[C@@H]1C(=O)NCCCN(C)c1ccccc1 [Compound 28]
< 800 nM | ♯ | CC(O)C1C(CO)ON(Cc2cccc(CN(CCN(C)C)C(C)(C)c3ccccc3)c2)C1C(=O)NC1CC2CC(C1C)C2(C)C (centres unmarked) [Compound 475]
< 800 nM | ♯ | CC(C)CC(CN(C)C)N(Cc1cccc(CN2OC(CO)C(C(C)O)C2C(=O)NC2CC3CC(C2C)C3(C)C)c1)Cc1cccc2c1OCO2 (centres unmarked) [Compound 302]
< 800 nM | ♯ | CC(O)C1C(CO)ON(Cc2cccc(CN3Cc4ccccc4C3C(=O)N(C)C)c2)C1C(=O)NC1CC2CC(C1C)C2(C)C (centres unmarked) [Compound 469]
< 800 nM | ♯ | C[C@@H]1[C@@H](NC(=O)[C@@H]2[C@H]([C@H](C)O)[C@H](CO)ON2Cc2cccc(-c3cccc(C(=O)NCCCN(C)C)c3)c2)C[C@H]2C[C@@H]1C2(C)C [Compound 216]
< 800 nM | ♯♯ | C[C@@H]1[C@@H](NC(=O)[C@@H]2[C@H]([C@H](C)O)[C@H](CO)ON2Cc2cccc(-c3ccc(S(=O)(=O)N(C)C)cc3)c2)C[C@H]2C[C@@H]1C2(C)C [Compound 130]
< 800 nM | ♯ | C[C@@H]1[C@@H](NC(=O)[C@@H]2[C@H]([C@H](C)O)[C@H](CO)ON2Cc2cccc(N(CCCN(C)C)CCCN(C)C)c2)C[C@H]2C[C@@H]1C2(C)C [Compound 583]
800 to 6000 nM | ♯ | CNCC#Cc1cccc(CN2O[C@@H](CO)[C@@H]([C@H](C)O)[C@H]2C(=O)N[C@H]2C[C@H]3CC([C@@H]2C)C3(C)C)c1 [Compound 50]
< 800 nM | ♯ | COc1cccc(CN(CCN(C)C)Cc2cccc(CN3OC(CO)C(C(C)O)C3C(=O)NC3CC4CC(C3C)C4(C)C)c2)c1 (centres unmarked) [Compound 381]
800 to 6000 nM | ♯ | C[C@H](O)[C@@H]1[C@H](CO)ON(Cc2cccc(CN(CCN(C)C)Cc3ccccc3)c2)[C@@H]1C(=O)N[C@H](C)c1ccc2ccccc2c1 [Compound 522]
< 800 nM | ♯♯ | C[C@@H]1[C@@H](NC(=O)[C@@H]2[C@H]([C@H](C)O)[C@H](CO)ON2Cc2cccc(-c3cccc(C(=O)N4CCN(C)CC4)c3)c2)C[C@H]2C[C@@H]1C2(C)C [Compound 129]
< 800 nM | ♯ | CCN1CCC[C@H]1CNC(=O)c1cccc(-c2cccc(CN3O[C@@H](CO)[C@@H]([C@H](C)O)[C@H]3C(=O)N[C@H]3C[C@H]4C[C@@H]([C@@H]3C)C4(C)C)c2OC)c1 [Compound 156]
< 800 nM | ♯ | C[C@@H]1[C@@H](NC(=O)[C@@H]2C([C@H](C)O)[C@H](CO)ON2Cc2cccc(CN(CCN(C)C)Cc3ccccc3N3CCCCC3)c2)C[C@H]2C[C@@H]1C2(C)C (some centres unmarked) [Compound 410]
800 to 6000 nM | ♯ | C[C@@H](O)[C@H]1[C@@H](CO)ON(Cc2cccc(C#CCNC(=O)c3ccccc3)c2)[C@H]1C(=O)NCCCCc1ccccc1 [Compound 64]
< 800 nM | ♯ | CNC(=O)c1cccc(-c2cccc(CN3O[C@@H](CO)[C@@H]([C@H](C)O)[C@H]3C(=O)N[C@H]3C[C@H]4C[C@@H]([C@@H]3C)C4(C)C)c2)c1 [Compound 220]
6000 to 50000 nM | ♯ | COCCNC(=O)[C@@H]1[C@H]([C@H](C)O)[C@H](CO)ON1Cc1cccc(CN(Cc2ccccc2)[C@@H](CC(C)C)CN(C)C)c1 [Compound 535]
< 800 nM | ♯ | CCN1CCC[C@@H]1CNC(=O)c1cccc(-c2cccc(CN3O[C@@H](CO)[C@@H]([C@H](C)O)[C@H]3C(=O)N[C@H]3C[C@H]4C[C@@H]([C@@H]3C)C4(C)C)c2)c1 [Compound 106]

SMILES | Ki (Bcl-2) | Bcl-XL binding affinity Ki (Bcl-xL)
C[C@H](O)[C@@H]1[C@H](CO)ON(Cc2cccc(C#C[C@]3(O)CC[C@H]4[C@@H]5CCc6cc(O)ccc6[C@H]5CC[C@@]43C)c2)[C@@H]1C(=O)NCCCN(C)c1ccccc1 [Compound 34] | > 50000 nM | ♯

— US7851637B2, “Compounds and methods for inhibiting the interaction of BCL proteins with binding partners” (Infinity Pharmaceuticals, Inc., priority 2004, dated 2010)
